# Source: patent US20230146455A1, “TREATMENT OF INFLAMMATORY DISEASES WITH PEPTIDES AND PHARMACEUTICAL COMPOSITIONS” (Yuyu Pharma, Inc., priority 2020, published 2023)
# “And” between values parts separate entries of the source, which are not always exact repeats. Identical values can stand only once. Where a SMILES comes first, the peptide text is derived from it. [ ]: non-standard residue; d: D form. Hyp = O=C(O)[C@@H]1C[C@@H](O)CN1
# Legend:
# IFN-gamma = assay: Example 9 Luminex, LPS hPBMCs: IFN-gamma; type: cell-based, human
# Procedure: (§1) Treatment Human PBMCs were pretreated with YY-101, YDE-011 and YDE-043 or reference compound; Xiidra® at various concentration (ranging from 1 nM to 100 uM) for 2 h before stimulation. An equal volume of 0.5% DMSO was used as a vehicle control. Then, the cells were treated with LPS at 5 ug/ml. The supernatants from treated cells were harvested at 24 h and placed in a 96 well for Luminex cytokine & chemokine profiling using a Luminex 200 multiplex assay (Luminex; R&D system, USA).
# (§2) The main study arm with triplicate wells per group in a 24-well plate: • 1. Blank • 2. PBMC: 0.5% DMSO • 3. PBMC+LPS (5 ug/ml) • 4. PBMC+YY-101 100 uM • 5. PBMC+YY-101 10 uM • 6. PBMC+YY-101 1 uM • 7. PBMC+YY-101 0.1 uM • 8. PBMC+YY-101 0.01 uM • 9. PBMC+LPS (5 ug/ml)+Xiidra®100 uM • 10. PBMC+LPS (5 ug/ml)+Xiidra® 10 uM • 11. PBMC+LPS (5 ug/ml)+Xiidra® 1 uM • 12. PBMC+LPS (5 ug/ml)+Xiidra®0.1 uM • 13. PBMC+LPS (5 ug/ml)+Xiidra®0.01 uM • 14. PBMC+LPS (5 ug/ml)+Xiidra®0.001 uM • 15. PBMC+LPS (5 ug/ml)+YY-101 100 uM • 16. PBMC+LPS (5 ug/ml)+YY-101 10 uM • 17. PBMC+LPS (5 ug/ml)+YY-101 1 uM • 18. PBMC+LPS (5 ug/ml)+YY-101 0.1 uM • 19. PBMC+LPS (5 ug/ml)+YY-101 0.01 uM • 20. PBMC+LPS (5 ug/ml)+YY-101 0.001 uM • 21. PBMC+LPS (5 ug/ml)+YDE-011 100 uM • 22. PBMC+LPS (5 ug/ml)+YDE-011 10 uM • 23. PBMC+LPS (5 ug/ml)+YDE-011 1 uM • 24. PBMC+LPS (5 ug/ml)+YDE-011 0.1 uM • 25. PBMC+LPS (5 ug/ml)+YDE-011 0.01 uM • 26. PBMC+LPS (5 ug/ml)+YDE-011 0.001 uM • 27. PBMC+LPS (5 ug/ml)+YDE-043 100 uM • 28. PBMC+LPS (5 ug/ml)+YDE-043 10 uM • 29. PBMC+LPS (5 ug/ml)+YDE-043 1 uM • 30. PBMC+LPS (5 ug/ml)+YDE-043 0.1 uM • 31. PBMC+LPS (5 ug/ml)+YDE-043 0.01 uM • 32. PBMC+LPS (5 ug/ml)+YDE-043 0.001 uM
# (§3) Multiplex assay was used to measure 30 cytokines and chemokines. The 1:2, 1:10 and 1:200 diluted cell supernatant and serial dilution of the standard were dispensed into a 96 well plate at 50 ul/well. Then, the pre-mixed cocktail of antibody-coated magnetic beads was dispensed at 50 ul/well and incubated at room temperature for 2 h in a horizontal orbital microplate shaker at 800±500 rpm. The beads were washed using a magnetic device to prevent loss. The biotin-antibody was dispensed in 50 ul of each well and incubated at room temperature for 1 h in a shaker at 800±500 rpm. After washing, streptavidin-PE was added at 50 ul/well and incubated at room temperature for 30 min in a shaker under the same conditions. Finally, after washing, wash buffer (100 ul/well) was added to the plate and incubated in a shaker for 2 min. The Luminex™ 200 setting were set according to the manufacturer's protocol. The data was calculated with a standard five-parameter logistic nonlinear regression analysis of the data (xPonent software 4.2, USA). The levels of cytokine/chemokine are normalized to the live cell counts (1×10^5 cells/mL) and presented as concentrations per mL (pg/mL or ng/mL).
# TIMP-1 = assay: Example 9 Luminex, LPS hPBMCs: TIMP-1; type: cell-based, human; settings: PBMC + LPS(5 ug/ml)
# Procedure: as §1, §2, §3
# [1] = PBMC + LPS(5 ug/ml) + test article 0.001 uM, Mean
# [2] = PBMC + LPS(5 ug/ml) + test article 0.001 uM, single replicates
# [3] = PBMC + LPS(5 ug/ml) + test article 0.01 uM, Mean
# [4] = PBMC + LPS(5 ug/ml) + test article 0.01 uM, single replicates
# [5] = PBMC + LPS(5 ug/ml) + test article 0.1 uM, Mean
# [6] = PBMC + LPS(5 ug/ml) + test article 0.1 uM, single replicates
# [7] = PBMC + LPS(5 ug/ml) + test article 1 uM, Mean
# [8] = PBMC + LPS(5 ug/ml) + test article 1 uM, single replicates
# [9] = PBMC + LPS(5 ug/ml) + test article 10 uM, Mean
# [10] = PBMC + LPS(5 ug/ml) + test article 10 uM, single replicates
# [11] = PBMC + LPS(5 ug/ml) + test article 100 uM, Mean
# [12] = PBMC + LPS(5 ug/ml) + test article 100 uM, single replicates
# [13] = test article 0.001 uM, single replicates
# [14] = test article 0.01 uM, single replicates
# [15] = test article 0.1 uM, single replicates
# [16] = test article 1 uM, single replicates
# [17] = test article 10 uM, single replicates
# [18] = test article 100 uM, single replicates
compound,measurement,setting,value
CC(C)C[C@H](NC(=O)CNC(=O)[C@H](CC(C)C)NC(=O)[C@H](CCC(N)=O)NC(=O)CNC(=O)[C@@H]1C[C@@H](O)CN1)C(=O)N[C@@H](C)C(=O)NCC(=O)N1CCC[C@H]1C(=O)N[C@@H](CCCCN)C(=O)O [YDE-011] (H-[Hyp]GQLGLAGPK-OH),Concentration (IFN-gamma),IFN-gamma; [1],773.0 pg/mL
same,conc/live cell (IFN-gamma),IFN-gamma; [1],143.6 pg/10^5
same,Concentration (IFN-gamma),IFN-gamma; [2],624.6 pg/mL and 730.3 pg/mL and 964.1 pg/mL
same,conc/live cell (IFN-gamma),IFN-gamma; [2],138.8 pg/10^5 and 125.9 pg/10^5 and 166.2 pg/10^5
same,Concentration (IFN-gamma),IFN-gamma; [3],792.2 pg/mL
same,conc/live cell (IFN-gamma),IFN-gamma; [3],135.8 pg/10^5
same,Concentration (IFN-gamma),IFN-gamma; [4],773.0 pg/mL and 753.6 pg/mL and 849.9 pg/mL
same,conc/live cell (IFN-gamma),IFN-gamma; [4],124.7 pg/10^5 and 147.8 pg/10^5 and 134.9 pg/10^5
same,Concentration (IFN-gamma),IFN-gamma; [5],812.6 pg/mL
same,conc/live cell (IFN-gamma),IFN-gamma; [5],141.6 pg/10^5
same,Concentration (IFN-gamma),IFN-gamma; [6],892.0 pg/mL and 753.6 pg/mL and 792.3 pg/mL
same,conc/live cell (IFN-gamma),IFN-gamma; [6],135.1 pg/10^5 and 150.7 pg/10^5 and 139.0 pg/10^5
same,Concentration (IFN-gamma),IFN-gamma; [7],987.2 pg/mL
same,conc/live cell (IFN-gamma),IFN-gamma; [7],196.0 pg/10^5
same,Concentration (IFN-gamma),IFN-gamma; [8],1088.2 pg/mL and 909.1 pg/mL and 964.1 pg/mL
same,conc/live cell (IFN-gamma),IFN-gamma; [8],197.9 pg/10^5 and 189.4 pg/10^5 and 200.9 pg/10^5
same,Concentration (IFN-gamma),IFN-gamma; [9],841.5 pg/mL
same,conc/live cell (IFN-gamma),IFN-gamma; [9],158.5 pg/10^5
same,Concentration (IFN-gamma),IFN-gamma; [10],973.6 pg/mL and 861.4 pg/mL and 689.4 pg/mL
same,conc/live cell (IFN-gamma),IFN-gamma; [10],180.3 pg/10^5 and 148.5 pg/10^5 and 146.7 pg/10^5
same,Concentration (IFN-gamma),IFN-gamma; [11],534.1 pg/mL
same,conc/live cell (IFN-gamma),IFN-gamma; [11],88.0 pg/10^5
same,Concentration (IFN-gamma),IFN-gamma; [12],604.8 pg/mL and 492.8 pg/mL and 504.9 pg/mL
same,conc/live cell (IFN-gamma),IFN-gamma; [12],99.1 pg/10^5 and 80.8 pg/10^5 and 84.1 pg/10^5
same,TIMP-1 Concentration,"TIMP-1; test article 0.001 uM, Mean",1792.7 pg/mL
same,TIMP-1 MFI,"TIMP-1; test article 0.001 uM, Mean",946.7
same,TIMP-1 conc/live cell,"TIMP-1; test article 0.001 uM, Mean",339.5 pg/10^5
same,TIMP-1 Concentration,TIMP-1; [13],1831.6 pg/mL and 1659.9 pg/mL and 1886.6 pg/mL
same,TIMP-1 MFI,TIMP-1; [13],974.0 and 852.5 and 1013.5
same,TIMP-1 conc/live cell,TIMP-1; [13],407.0 pg/10^5 and 286.2 pg/10^5 and 325.3 pg/10^5
same,TIMP-1 Concentration,"TIMP-1; test article 0.01 uM, Mean",1879.9 pg/mL
same,TIMP-1 MFI,"TIMP-1; test article 0.01 uM, Mean",1009.2
same,TIMP-1 conc/live cell,"TIMP-1; test article 0.01 uM, Mean",325.5 pg/10^5
same,TIMP-1 Concentration,TIMP-1; [14],1811.3 pg/mL and 2050.0 pg/mL and 1778.3 pg/mL
same,TIMP-1 MFI,TIMP-1; [14],959.5 and 1132.0 and 936.0
same,TIMP-1 conc/live cell,TIMP-1; [14],292.1 pg/10^5 and 402.0 pg/10^5 and 282.3 pg/10^5
same,TIMP-1 Concentration,"TIMP-1; test article 0.1 uM, Mean",1831.1 pg/mL
same,TIMP-1 MFI,"TIMP-1; test article 0.1 uM, Mean",974.2
same,TIMP-1 conc/live cell,"TIMP-1; test article 0.1 uM, Mean",320.0 pg/10^5
same,TIMP-1 Concentration,TIMP-1; [15],1879.7 pg/mL and 1677.8 pg/mL and 1935.9 pg/mL
same,TIMP-1 MFI,TIMP-1; [15],1008.5 and 865.0 and 1049.0
same,TIMP-1 conc/live cell,TIMP-1; [15],284.8 pg/10^5 and 335.6 pg/10^5 and 339.6 pg/10^5
same,TIMP-1 Concentration,"TIMP-1; test article 1 uM, Mean",1791.4 pg/mL
same,TIMP-1 MFI,"TIMP-1; test article 1 uM, Mean",945.5
same,TIMP-1 conc/live cell,"TIMP-1; test article 1 uM, Mean",356.7 pg/10^5
same,TIMP-1 Concentration,TIMP-1; [16],1869.9 pg/mL and 1750.8 pg/mL and 1753.6 pg/mL
same,TIMP-1 MFI,TIMP-1; [16],1001.5 and 916.5 and 918.5
same,TIMP-1 conc/live cell,TIMP-1; [16],340.0 pg/10^5 and 364.7 pg/10^5 and 365.3 pg/10^5
same,TIMP-1 Concentration,"TIMP-1; test article 10 uM, Mean",1768.2 pg/mL
same,TIMP-1 MFI,"TIMP-1; test article 10 uM, Mean",929.0
same,TIMP-1 conc/live cell,"TIMP-1; test article 10 uM, Mean",335.3 pg/10^5
same,TIMP-1 Concentration,TIMP-1; [17],1820.4 pg/mL and 1794.4 pg/mL and 1689.9 pg/mL
same,TIMP-1 MFI,TIMP-1; [17],966.0 and 947.5 and 873.5
same,TIMP-1 conc/live cell,TIMP-1; [17],337.1 pg/10^5 and 309.4 pg/10^5 and 359.5 pg/10^5
same,TIMP-1 Concentration,"TIMP-1; test article 100 uM, Mean",2184.4 pg/mL
same,TIMP-1 MFI,"TIMP-1; test article 100 uM, Mean",1231.0
same,TIMP-1 conc/live cell,"TIMP-1; test article 100 uM, Mean",360.0 pg/10^5
same,TIMP-1 Concentration,TIMP-1; [18],2326.8 pg/mL and 2121.7 pg/mL and 2104.6 pg/mL
same,TIMP-1 MFI,TIMP-1; [18],1336.5 and 1184.5 and 1172.0
same,TIMP-1 conc/live cell,TIMP-1; [18],381.4 pg/10^5 and 347.8 pg/10^5 and 350.8 pg/10^5
